Measured values reported in ChEMBL document CHEMBL3108690, “Discovery and characterization of a novel dihydroisoxazole class of α-amino-3-hydroxy-5-methyl-4-isoxazolepropionic acid (AMPA) receptor potentiators” (J Med Chem, 2013).
The source made the active and inactive calls. The calls are words filed in the database; no cut-off is given here.

Columns and labels:
Mus musculus [1] = species on record: Mus musculus; assay: Positive allosteric modulation of AMPAR in mouse embryonic stem cell-derived neurons assessed as intracellular Ca2+ flux by FLIPR assay in presence of cyclothiazide relative to AMPA; format: cell-based
human MDR1 = assay: Efflux ratio of apparent permeability from basolateral to apical side over apical to basolateral side in MDCK cells transfected with human MDR1 at 2 uM; format: ADME, cell-based, Canis lupus familiaris; conditions: dog
[2] = Positive allosteric modulation of AMPAR in mouse embryonic stem cell-derived neurons assessed as intracellular Ca2+ flux by FLIPR assay; format: cell-based
Mus musculus [3] = assay: Induction of cGMP level in sc dosed CD-1 mouse cerebellum administered as qd measured after 0.5 hrs by EIA; format: functional, organism-based
Mus musculus [4] = assay: Ratio of unbound concentration in brain required to cause convulsion in CD-1 mouse at 0.32 to 0.56 mg/kg, sc to unbound concentration in brain required to cause induction of cGMP level in CD-1 mouse cerebellum at 0.32 mg/kg, sc
[5] = Terminal half life in Sprague-Dawley rat brain at 0.2 mg/kg, sc qd; format: ADME, organism-based; design: dose 0.2 mg/kg, route subcutaneous; conditions: read-out: beta t1/2 (converted)
Rattus norvegicus [6] = assay: Reversal of MK-801-mediated decrease in paired-pulse facilitation in Sprague-Dawley rat at 0.003 mg/kg, iv administered as bolus dose measured after 5 mins; format: functional, organism-based; design: dose 0.003 mg/kg
[7] = Ratio of total drug level from brain to plasma in Sprague-Dawley rat at 0.2 mg/kg, sc qd; format: ADME, organism-based; design: dose 0.2 mg/kg, route subcutaneous; conditions: read-out: BPR
Rattus norvegicus [8] = assay: Reversal of MK-801-mediated increase in low delta component of local field potential in Sprague-Dawley rat at 0.001 mg/kg, iv administered as bolus dose measured after 5 mins; format: functional, organism-based; design: dose 0.001 mg/kg
[9] = Ratio of free drug level from brain to plasma in Sprague-Dawley rat at 0.2 mg/kg, sc qd; format: ADME, organism-based; design: dose 0.2 mg/kg, route subcutaneous; conditions: read-out: K(p,uu,brain)
Rattus norvegicus [10] = assay: Toxicity in Sprague-Dawley rat assessed as induction of convulsion at 0.32 to 0.56 mg/kg, sc measured after 13 to 23 mins; format: organism-based; design: route subcutaneous; conditions: in vivo
Rattus norvegicus [11] = assay: Toxicity in Sprague-Dawley rat assessed as induction of tremor at 0.32 to 0.56 mg/kg, sc measured at 10 mins; format: organism-based; design: dose 0.32-0.56 mg/kg, route subcutaneous; conditions: in vivo
[12] = Fraction unbound in Sprague-Dawley rat brain at 0.01 mg/kg, iv; format: ADME, organism-based; design: dose 0.01 mg/kg, route intravenous
[13] = Therapeutic index, ratio of unbound concentration in brain required to cause convulsion in Sprague-Dawley rat at 0.32 to 0.56 mg/kg, sc to unbound concentration in brain required to cause reversal of MK-801-mediated increase in low delta component of local field potential in Sprague-Dawley rat at 0.003 mg/kg, iv administered as bolus dose; format: organism-based; conditions: read-out: TI
Rattus norvegicus [14] = assay: Reversal of MK-801-mediated decrease in paired-pulse facilitation in Sprague-Dawley rat at 0.001 mg/kg, iv administered as bolus dose measured after 5 mins; format: functional, organism-based; design: dose 0.001 mg/kg
[15] = Fraction unbound in Sprague-Dawley rat plasma at 0.01 mg/kg, iv; format: ADME, organism-based; design: dose 0.01 mg/kg, route intravenous
[16] = Displacement of [3H]PF-04725379 from Sprague-Dawley rat AMPAR after 2 hrs by liquid scintillation counting analysis
Rattus norvegicus [17] = assay: Reversal of MK-801-mediated increase in low delta component of local field potential in Sprague-Dawley rat at 0.003 mg/kg, iv administered as bolus dose measured after 5 mins; format: functional, organism-based; design: dose 0.003 mg/kg
Mus musculus [18] = assay: Toxicity in CD-1 mouse assessed as induction of convulsion at 0.32 to 0.56 mg/kg, sc measured after 5 to 11 mins; format: organism-based; design: route subcutaneous; conditions: in vivo
[19] = Terminal half life in Sprague-Dawley rat plasma at 0.2 mg/kg, sc qd; format: ADME, organism-based; design: dose 0.2 mg/kg, route subcutaneous; conditions: read-out: beta t1/2 (converted)
[20] = Ratio of unbound concentration in brain required to cause induction of cGMP level in CD-1 mouse cerebellum at 0.32 mg/kg, sc over unbound concentration in brain required to cause reversal of MK-801-mediated increase in low delta component of local field potential in Sprague-Dawley rat at 0.003 mg/kg, iv administered as bolus dose; format: functional
[21] = Apparent permeability from apical to basolateral side in MDCK cells at 2 uM by LC-MS/MS analysis; format: ADME, cell-based, Canis lupus familiaris; conditions: dog
[22] = Ratio of drug level from brain to plasma in CD-1 mouse at 0.1 mg/kg, sc qd measured after 0.5 hrs; format: ADME, organism-based; design: dose 0.1 mg/kg, route subcutaneous; conditions: read-out: BPR
[23] = Apparent intrinsic clearance in human liver microsomes; format: ADME; conditions: read-out: CLH(app)
[24] = Apparent permeability in MDCK cells; format: ADME, cell-based, Canis lupus familiaris; conditions: dog
MDR1 = assay: Efflux ratio of apparent permeability in MDCK cells expressing MDR1; format: ADME, cell-based, Canis lupus familiaris; conditions: dog

SMILES | Emax (Mus musculus [1]) [%] | efflux ratio at 2 µM (human MDR1) | EC50 [2] [nM] | Papp A→B at 2 µM [21] [×10⁻⁶ cm/s] | other results
CC(C)S(=O)(=O)NCC1CC(c2ccc(N3CCCC3)cc2)=NO1 (racemic) | 169 | 0.89 | 253 |  | 
CC(C)S(=O)(=O)NC[C@@H]1CC(c2ccc(N3CCCC3)c(F)c2)=NO1 | 147 | 1.45 | 123 | 18.6 | Activity (Mus musculus [3]): Dose-dependent effect; Ratio (Mus musculus [4]): 5; half-life [5]: 24 min; Activity (Rattus norvegicus [6]): Active; Kp [7]: 1.04; Activity (Rattus norvegicus [8]): inactive; Kp uu [9]: 0.54; Activity (Rattus norvegicus [10]): Toxic; Activity (Rattus norvegicus [11]): Toxic; fraction unbound [12]: 0.014; selectivity ratio [13]: 500; Activity (Rattus norvegicus [14]): inactive; fraction unbound [15]: 0.027; Ki [16]: < 24 nM; Activity (Rattus norvegicus [17]): Active; Activity (Mus musculus [18]): Toxic; half-life [19]: 24 min; Ratio [20]: 100
CC(C)S(=O)(=O)NCC1CC(c2ccc(-c3ccccc3)c(F)c2)=NO1 (racemic) | 138 |  | 3210 |  | 
CC(C)S(=O)(=O)NCC1CC(c2ccc(-c3cccc(C#N)c3)c(F)c2)=NO1 (racemic) | 156 | 1.17 | 1850 | 15.1 | 
CC(C)S(=O)(=O)NCC1CC(c2cccc(F)c2)=NO1 (racemic) |  |  | > 31600 |  | 
CC(C)S(=O)(=O)NC[C@H]1CC(c2ccc(N3CCCC3)c(F)c2)=NO1 | 114 | 1.6 | 4690 |  | Ki [16]: 5760 nM
CC(=O)N[C@H]1CCN(c2ccc(C3=NO[C@H](CNS(=O)(=O)C(C)C)C3)cc2F)C1 | 143 | 12.1 | < 10 | 3.93 | Kp at 0.5 h [22]: 0.03
CC(C)S(=O)(=O)NC[C@@H]1CC(c2ccc(-c3ccccc3C#N)c(F)c2)=NO1 |  | 1.18 | < 10 | 29.1 | Ki [16]: 24 nM
CC(=O)NC[C@@H]1CC(c2ccc(N3CCCC3)c(F)c2)=NO1 |  |  | 4400 |  | microsomal CLint [23]: 26 µL/min/mg; Papp [24]: 35 ×10⁻⁶ cm/s; efflux ratio (MDR1): 0.98
CC(C)S(=O)(=O)NCC1CC(c2ccc(N3CCCC3)c(F)c2)=NO1 (racemic) | 128 |  | 155 |  | 
CC(C)S(=O)(=O)NCC1CC(c2ccc(-c3cccnc3)c(F)c2)=NO1 (racemic) | 157 | 0.84 | 294 | 22 | 
CC(C)S(=O)(=O)NCC1CC(c2ccc(-c3ccc(C#N)cc3)c(F)c2)=NO1 (racemic) | 124 | 1.4 | 2640 | 16.7 | 
CC(C)S(=O)(=O)NCC1CC(c2ccc(-c3ccccc3C#N)c(F)c2)=NO1 (racemic) | 152 | 1.16 | 86.9 | 12.9 | 
